Reference: the supplement of paper PMC10307832

Tests used:
Assay in all cases: relative viability (nuclei count vs DMSO), 5 days (fraction); higher = more cells survive
[1] = compound: CN1CCN(CC1)C2=CC(=C(C=C2)NC3=NC=C4C(=N3)N(C5=CC=CC=C5C(=O)N4C)C)OC [XMD8-85] + CC(=O)c1c(C)c2cnc(Nc3ccc(N4CCNCC4)cn3)nc2n(C2CCCC2)c1=O [Palbociclib] (partner 0.5 µM)
Procedure, shortened: (§1)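 Nuclei were stained with Hoechst during a one-step fixation (final 0.05% Triton X-100, 1% formaldehyde, 1 ug/ml Hoechst) carried out 5 days after dosing, then counted on 4× images. The cells, lung cancer lines in 1536-well plates, had been dosed by pin tool the day after seeding with one drug alone or a fixed anchor-drug dose plus five library-drug doses (not always all listed) in √10 steps. Relative viability is the nuclei count in treated wells divided by that in vehicle wells, and each value is the median of duplicate plates.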

[2] = compound: CN1CCN(CC1)C2=CC(=C(C=C2)NC3=NC=C4C(=N3)N(C5=CC=CC=C5C(=O)N4C)C)OC [XMD8-85] + C[C@@H](Oc1cc(-c2cnn(C3CCNCC3)c2)cnc1N)c1c(Cl)ccc(F)c1Cl [Crizotinib] (partner 1 µM)
Procedure, shortened: as §1

[3] = compound: O=C(O)C(Cc1ccccc1[N+](=O)[O-])=NNc1nc(-c2ccc(Cl)c(Cl)c2)cs1 (mixture of isomers) [4EGI-1] + CC(C)C[C@H](NC(=O)[C@H](Cc1ccccc1)NC(=O)c1cnccn1)B(O)O [Bortezomib] (partner 0.002 µM)
Procedure, shortened: as §1

[4] = compound: O=C(O)C(Cc1ccccc1[N+](=O)[O-])=NNc1nc(-c2ccc(Cl)c(Cl)c2)cs1 (mixture of isomers) [4EGI-1] + O=C(CCCCCCC(=O)Nc1ccccc1)NO [Vorinostat] (partner 1 µM)
Procedure, shortened: as §1

Cell Line | relative viability ([1]; first compound 0.08 µM) | relative viability ([1]; first compound 0.253 µM) | relative viability ([1]; first compound 0.8 µM) | relative viability ([1]; first compound 2.53 µM) | relative viability ([1]; first compound 8 µM) | relative viability ([2]; first compound 0.08 µM) | relative viability ([2]; first compound 0.253 µM) | relative viability ([2]; first compound 0.8 µM) | relative viability ([2]; first compound 2.53 µM) | relative viability ([2]; first compound 8 µM) | relative viability ([3]; first compound 0.5 µM) | relative viability ([3]; first compound 5 µM) | relative viability ([3]; first compound 15.81 µM) | relative viability ([3]; first compound 50 µM) | relative viability ([4]; first compound 0.5 µM) | relative viability ([4]; first compound 1.581 µM) | relative viability ([4]; first compound 5 µM) | relative viability ([4]; first compound 15.81 µM) | relative viability ([4]; first compound 50 µM) | relative viability ([3]; first compound 1.581 µM)
NCI-H460 | 0.129 | 0.221 | 0.139 | 0.223 | 0.0809 | 0.996 | 0.83 | 1.19 | 0.619 | 0.0598 | 1.15 | 1.08 | 0.913 | 0.0451 | 0.713 | 0.353 | 0.714 | 0.436 | 0.0364 | –
LXF-289 | 0.581 | 0.615 | 0.561 | 0.658 | 0.54 | 0.787 | 0.798 | 0.809 | 0.804 | 0.658 | 1.06 | 1 | 0.876 | 0.443 | 0.79 | 0.718 | 0.787 | 0.802 | 0.672 | 1.06
CAL-12T | 0.308 | 0.499 | – | 0.474 | 0.196 | 0.357 | 0.664 | 0.779 | 0.474 | 0.15 | – | 1.1 | 0.951 | 0.403 | 0.964 | – | 0.95 | 0.759 | 0.67 | –
NCI-H23 | 0.488 | – | 0.525 | 0.441 | 0.413 | 0.4 | 0.434 | 0.472 | 0.387 | 0.217 | 1.16 | 1.18 | 1.03 | 0.656 | 0.779 | – | 0.612 | 0.58 | 0.165 | –
NCI-H647 | 0.342 | 0.325 | 0.406 | 0.523 | 0.282 | 1.12 | 1.1 | 1.05 | 1.14 | 0.213 | 1.08 | 1.13 | 0.533 | 0.748 | 0.837 | 0.53 | 0.689 | 0.477 | 0.0731 | 1.08
COR-L 105 | 0.421 | 0.423 | 0.368 | 0.382 | 0.409 | – | 0.807 | 0.793 | 0.455 | 0.255 | 0.876 | 0.725 | 0.424 | 0.252 | 0.823 | 0.672 | 0.777 | 0.699 | 0.592 | 0.592
A-427 | 0.521 | 0.544 | 0.571 | 0.52 | 0.463 | 0.897 | 0.934 | 0.922 | 1.05 | 0.56 | 0.984 | 0.911 | 0.832 | 0.625 | 0.865 | – | 0.882 | 0.646 | 0.2 | 0.795
NCI-H1734 | 0.315 | 0.329 | – | 0.384 | 0.281 | 0.614 | 0.646 | 0.724 | 0.577 | 0.368 | 0.948 | 0.922 | 0.712 | 0.292 | 0.965 | 0.67 | 0.966 | 0.545 | 0.329 | 0.773
PC-3 [JPC-3] | 0.489 | 0.539 | 0.551 | 0.583 | 0.564 | 0.827 | 1.12 | 1.01 | 1.09 | 0.986 | 0.787 | 0.812 | – | 0.645 | 0.753 | – | 0.867 | 0.418 | 0.307 | 0.81
LCLC-97TM1 | 0.192 | 0.188 | 0.188 | 0.204 | 0.239 | 0.321 | 0.569 | 0.558 | 0.456 | 0.333 | 0.589 | 0.942 | 0.271 | 0.277 | 0.78 | – | 0.856 | 0.843 | 0.0947 | –
ChaGo-K-1 | 0.99 | 0.965 | 0.963 | 0.931 | 0.899 | 1.08 | 1.15 | 1.44 | 0.887 | – | 0.995 | 0.954 | 0.659 | 0.434 | 0.779 | 0.61 | 0.796 | 0.781 | 0.347 | –
HCC-366 | 0.316 | 0.298 | 0.375 | 0.291 | 0.196 | 0.388 | – | 0.586 | 0.481 | 0.136 | 1.12 | 1.04 | 1.09 | 0.19 | 0.469 | 0.149 | 0.431 | 0.34 | 0.0704 | 0.841
COR-L23 | 0.269 | 0.234 | 0.269 | 0.294 | 0.238 | 0.739 | 0.561 | 0.723 | 0.631 | 0.299 | 0.983 | 1.09 | 0.808 | 0.19 | 0.672 | 0.261 | 0.618 | 0.345 | 0.103 | 0.651
LOU-NH91 | 0.536 | 0.496 | 0.503 | 0.534 | 0.514 | 0.749 | 0.741 | 0.728 | 0.725 | 0.67 | 0.501 | 0.531 | 0.384 | 0.426 | 0.993 | – | 0.964 | 0.782 | 0.529 | –
NCI-H441 | 0.206 | 0.209 | 0.197 | 0.195 | 0.2 | 0.592 | 0.648 | 0.89 | 0.931 | 0.485 | 0.634 | 0.659 | 0.492 | 0.441 | 0.727 | 0.909 | 0.75 | 0.641 | 0.414 | 0.517
NCI-H2405 | 0.527 | – | 0.543 | 0.528 | 0.509 | 0.829 | 0.815 | 0.769 | 0.85 | 0.665 | 0.972 | 0.949 | 0.992 | 0.79 | 1.07 | – | 1.02 | 1.01 | 0.35 | 0.858
SK-LU-1 | 0.358 | 0.364 | 0.392 | 0.356 | 0.385 | 0.568 | 0.892 | 1.07 | 1.12 | 0.653 | 1.18 | 1.36 | 1.53 | 0.913 | 0.717 | 0.786 | 0.817 | 0.757 | 0.289 | –
